Results as given in US8084484B2, “Vanilloid receptor ligands, pharmaceutical compositions containing them, process for making them, and use thereof for treating pain and other conditions” (Gruenenthal GmbH, priority 2007, dated 2011).
pKi: −log10 of the molar value.

How the values were obtained:
[1] = target: T1, vanilloid receptor (VR1), human VR1 gene (Homo sapiens, UniProt Q8NER1); test: FLIPR Ca2+ influx assay on CHO K1 cells transfected with the VR1 gene, capsaicin stimulus (Pharmacological method II); format: cell-based; details: for Ki (human) Capsaicin / pKi: Ki by Cheng-Prusoff, ne = no effect, no response observed, human; for inhibition at 0.1 µM: CHO-K1, compound 0.1 μM, read-out: Capsaicin: inhibition (in percent) @ 0.1 μM; for inhibition at 0.1 µM / inhibition at 5 µM: species column unclear (taken as human); for inhibition at 5 µM: CHO-K1, compound 5 μM, read-out: Capsaicin: inhibition (in percent) @ 5 μM
T1 construct: expressed in transfected cells; host or cells: CHO K1 cells (ECACC), stably transfected
T1 sequence (Q8NER1 whole entry): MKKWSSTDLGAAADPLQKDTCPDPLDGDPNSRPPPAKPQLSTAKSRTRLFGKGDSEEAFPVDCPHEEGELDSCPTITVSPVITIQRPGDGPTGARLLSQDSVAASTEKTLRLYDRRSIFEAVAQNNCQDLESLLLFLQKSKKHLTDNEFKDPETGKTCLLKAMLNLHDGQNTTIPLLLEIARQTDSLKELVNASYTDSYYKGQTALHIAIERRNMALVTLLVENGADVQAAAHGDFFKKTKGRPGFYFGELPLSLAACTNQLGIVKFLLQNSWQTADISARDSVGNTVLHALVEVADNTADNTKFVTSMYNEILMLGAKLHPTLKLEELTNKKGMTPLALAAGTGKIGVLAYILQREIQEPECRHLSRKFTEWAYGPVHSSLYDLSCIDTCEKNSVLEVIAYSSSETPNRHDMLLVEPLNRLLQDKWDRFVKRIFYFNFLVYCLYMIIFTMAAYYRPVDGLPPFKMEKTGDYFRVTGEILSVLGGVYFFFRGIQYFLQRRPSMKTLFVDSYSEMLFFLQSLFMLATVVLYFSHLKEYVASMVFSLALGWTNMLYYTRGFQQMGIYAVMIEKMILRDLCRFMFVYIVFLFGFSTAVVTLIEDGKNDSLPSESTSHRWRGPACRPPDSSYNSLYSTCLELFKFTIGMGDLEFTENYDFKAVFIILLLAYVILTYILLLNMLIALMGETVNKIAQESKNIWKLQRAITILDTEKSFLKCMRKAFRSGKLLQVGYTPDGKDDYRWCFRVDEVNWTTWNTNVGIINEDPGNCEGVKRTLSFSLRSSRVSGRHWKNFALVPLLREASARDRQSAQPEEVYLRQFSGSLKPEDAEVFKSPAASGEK
Procedure: In addition, compounds according to the invention of the general formulae I, Ia, Ib, Ic, and Id, may be preferred which in the FLIPR assay with CHO K1 cells, which have been transfected with the human VR1 gene, in a concentration of less than 2000 nM, preferably of less than 1000 nM, particularly preferably of less than 300 nM, very particularly preferably of less than 100 nM, still more preferably of less than 75 nM, further preferably of less than 50 nM and most preferably of less than 10 nM, bring about a 50 percent displacement of capsaicin, which is present in a concentration of 100 nM. In this FLIPR assay, the influx of Ca^2+ is quantified with the assistance of a Ca^2+-sensitive dye (type Fluo-4, Molecular Probes Europe BV, Leiden, Netherlands) in a Fluorescent Imaging Plate Reader (FLIPR, Molecular Devices, Sunnyvale, USA) as described below.
II. Functional Investigations on Vanilloid Receptor (VR1)
The agonistic or antagonistic action of the substances to be investigated on the vanilloid receptor (VR1) may also be determined with the following assay. According to this assay, the influx of Ca^2+ through the channel is quantified with the assistance of a Ca^2+-sensitive dye (type Fluo-4, Molecular Probes Europe BV, Leiden, Netherlands) in a Fluorescent Imaging Plate Reader (FLIPR, Molecular Devices, Sunnyvale, USA).
Chinese hamster ovary cells (CHO K1 cells, European Collection of Cell Cultures (ECACC), Great Britain) are stably transfected with the VR1 gene. For functional investigations, these cells are plated out onto poly-D-lysine-coated, black 96-hole plates with a clear base (BD Biosciences, Heidelberg, Germany) at a density of 25,000 cells/hole. The cells are incubated overnight at 37° C. and 5% CO2 in a culture medium (Ham's Nutrient Mixture F12, 10 vol. % FCS (foetal calf serum), 18 μg/mL L-proline). On the following day, the cells are incubated with Fluo-4 (Fluo-4 2 μM, Pluronic F127 0.01 vol. %, Molecular Probes in HBSS (Hank's buffered saline solution), Gibco Invitrogen GmbH, Karlsruhe, Germany) for 30 minutes at 37° C. The plates are then washed 3 times with HBSS buffer and, after a further 15 minutes' incubation at room temperature, used for Ca^2+ measurement in the FLIPR. Ca^2+-dependent fluorescence is here measured before and after the addition of the substances to be investigated (wavelength λex=488 nm, λem=540 nm).
Quantification proceeds by measuring the highest fluorescence intensity (FC, fluorescence counts) over time.
The FLIPR protocol consists of 2 additions of substance. The substances to be tested (10 μM) are firstly pipetted onto the cells and Ca^2+ influx is compared with the control (capsaicin 10 μM) (% activation relative to the Ca^2+ signal after addition of 10 μM of capsaicin). After 5 minutes' incubation, 100 nM of capsaicin are added and the influx of Ca^2+ is likewise determined.
The percentage inhibition in comparison with the maximum achievable inhibition with 10 μM capsaicin is calculated.
On the basis of the percentage displacement by different concentrations of the compounds to be tested of the general formula I, IC50 inhibition concentrations which bring about 50% displacement of capsaicin were calculated. Ki values for the test substances were obtained by conversion using the Cheng-Prusoff equation (Cheng, Prusoff; Biochem. Pharmacol. 22, 3099-3108, 1973).

[2] = target: VR1/TRPV1 receptor (Homo sapiens, UniProt Q8NER1); test: Inhibition of human VR1/TRPV1 following pH-stimulus; format: cell-based; details: for IC50 (Human) following pH-stimulus: ne = no effect, no response observed; for inhibition at 5 µM: read-out: IC50 (Human) following pH-stimulus: inhibition (in percent) @ 5 μM; for inhibition at 1 µM: compound 1 μM, read-out: IC50 (Human) following pH-stimulus: inhibition (in percent) @ 1 μM; for inhibition at 10 µM: compound 10 μM, read-out: IC50 (Human) following pH-stimulus: inhibition (in percent) @ 10 μM
VR1/TRPV1 receptor, sequence (Q8NER1 whole entry): as above

IC50 (Human) following pH-stimulus [2]	inhibition at 0.1 µM [1]	pKi [1]	inhibition at 5 µM ([2]; compound 5 μM)	SMILES	also measured
				CC(C(=O)NCc1ccc(C(C)(C)C)cc1)c1ccc2nccnc2c1 (stereo not shown) [Example 11, N-(4-tert.-butyl-benzyl)-2-quinoxalin-6-yl-propionamide]	Ki (human) Capsaicin [1]: ne
Ne	5%			CC1CCN(c2nc(C(F)(F)F)ccc2CNC(=O)C(C)c2ccc3nc(N)sc3c2)CC1 (stereo not shown) [Example 52, 2-(2-aminobenzo[d]thiazol-6-yl)-N-((2-(4-methylpiperidin-1-yl)-6-(trifluoromethyl)pyridin-3-yl)methyl)propanamide]	
Ne		5.97		CC(C(=O)NCc1ccc(C(C)(C)C)cc1)c1ccc2c(c1)OCCO2 (stereo not shown) [Example 9, N-(4-tert.-butyl-benzyl)-2-(2,3-dihydro-benzo[1,4]dioxin-6-yl)-propionamide]	
				CC(C(=O)NCc1ccc(C(C)(C)C)cc1)c1ccc2[nH]cnc2c1 (stereo not shown) [Example 14, 2-(1H-benzoimidazol-5-yl)-N-(4-tert.-butyl-benzyl)-propionamide]	Ki (human) Capsaicin [1]: ne
Ne	5%			CC(=O)Nc1nc2ccc(C(C)C(=O)NCc3ccc(C(F)(F)F)nc3N3CCC(C)CC3)cc2s1 (stereo not shown) [Example 41, 2-(2-acetamidobenzo[d]thiazol-6-yl)-N-((2-(4-methylpiperidin-1-yl)-6-(trifluoromethyl)pyridin-3-yl)methyl)propanamide]	
	3%		39%	CC(C(=O)NCc1ccc(C(C)(C)C)cc1)c1ccc2nc(N)sc2c1 (stereo not shown) [Example 51, 2-(2-aminobenzo[d]thiazol-6-yl)-N-(4-tert.-butylbenzyl)propanamide]	inhibition at 0.1 µM ([2]; compound 0.1 μM, read-out: IC50 (Human) following pH-stimulus: inhibition (in percent) @ 0.1 μM): 10%; IC50 (Human) following pH-stimulus: inhibition (in percent) @ 5 μM ([2]; compound 5 μM, 5 µM): 27% @ 5
			27%	CC1CCN(c2nc(C(C)(C)C)ccc2CNC(=O)C(C)c2ccc3nc(NC(=O)OC(C)(C)C)sc3c2)CC1 (stereo not shown) [Example 55, tert-butyl 6-(1-((6-tert-butyl-2-(4-methylpiperidin-1-yl)pyridin-3-yl)methylamino)-1-oxopropan-2-yl)benzo[d]thiazol-2-ylcarbamate]	inhibition at 1 µM [2]: 5%; inhibition at 5 µM [1]: 12%
Ne		5.66		COc1cc(C(C)C(=O)NCc2ccc(C(C)(C)C)cc2)cc2ncoc12 (stereo not shown) [Example 7, N-(4-tert.-butyl-benzyl)-2-(7-methoxy-benzooxazolyl-5-yl)-propionamide]	
		7.48	3%	CC(C(=O)NCc1ccc(C(C)(C)C)cc1)c1ccc2nc(NS(C)(=O)=O)sc2c1 (stereo not shown) [Example 57, N-(4-tert-butylbenzyl)-2-(2-(methylsulfonamid)benzo[d]thiazol-6-yl)propanamide]	inhibition at 10 µM [2]: 32%
Ne		6.24		CC(C(=O)NCc1ccc(C(C)(C)C)cc1)c1ccc2ocnc2c1 (stereo not shown) [Example 1, 2-benzooxazol-5-yl-N-(4-tert.-butyl-benzyl)-propionamide]	
	0%		25%	CC(C(=O)NCc1ccc(C(C)(C)C)cc1)c1ccc2nc(NC(=O)OC(C)(C)C)sc2c1 (stereo not shown) [Example 50, tert.-butyl 6-(1-(4-tert.-butylbenzylamino)-1-oxopropan-2-yl)benzo[d]thiazol-2-ylcarbamate]	inhibition at 1 µM [2]: 10%; inhibition at 10 µM [2]: 53%; inhibition at 5 µM [1]: 10%
Ne	0%			CC1CCN(c2nc(C(F)(F)F)ccc2CNC(=O)C(C)c2ccc3nc(NS(C)(=O)=O)sc3c2)CC1 (stereo not shown) [Example 39, N-((2-(4-methylpiperidin-1-yl)-6-(trifluoromethyl)pyridin-3-yl)methyl)-2-(2-(methylsulfonamido)benzo[d]thiazol-6-yl)propanamide]	
Ne				CC(C(=O)NCc1ccc(C(C)(C)C)cc1)c1ccc2c(c1)OCCN2 (stereo not shown) [Example 20, N-(4-tert.-butylbenzyl)-2-(3,4-dihydro-2H-benzo[b][1,4]oxazin-7-yl)propionamide]	inhibition at 5 µM [1]: 9%
Ne		7.55		CC1CCN(c2nc(C(F)(F)F)ccc2CNC(=O)C(C)c2ccc3nc(N)sc3c2)CC1 (stereo not shown) [Example 38, 2-(2-aminobenzo[d]thiazol-6-yl)-N-((2-(4-methylpiperidin-1-yl)-6-(trifluoromethyl)pyridin-3-yl)methyl)propanamide]	
	0%		21%	CC1CCN(c2nc(C(F)(F)F)ccc2CNC(=O)C(C)c2ccc3nc(NC(=O)OC(C)(C)C)sc3c2)CC1 (stereo not shown) [Example 40, tert.-butyl 6-(1-((2-(4-methylpiperidin-1-yl)-6-(trifluoromethyl)pyridin-3-yl)methylamino)-1-oxopropan-2-yl)benzo[d]thiazol-2-ylcarbamate]	inhibition at 1 µM [2]: 0%; inhibition at 10 µM [2]: 37%; inhibition at 5 µM [1]: 34%
Ne				CSc1nc2ccc(C(C)C(=O)NCc3ccc(C(C)(C)C)nc3N3CCC(C)CC3)cc2s1 (stereo not shown) [Example 34, N-(6′-tert.-butyl-4-methyl-3,4,5,6-tetrahydro-2H-[1,2′]bipyridinyl-3′-ylmethyl)-2-(2-methylsulfanyl-benzothiazol-6-yl)-propionamide]	inhibition at 5 µM [1]: 38%
		7.73	2%	CC1CCN(c2nc(C(C)(C)C)ccc2CNC(=O)C(C)c2ccc3nc(N)sc3c2)CC1 (stereo not shown) [Example 56, 2-(2-aminobenzo[d]thiazol-6-yl)-N-((6-tert-butyl-2-(4-methylpiperidin-1-yl)pyridin-3-yl)methyl)propanamide]	inhibition at 10 µM [2]: 12%
